Test results published in ChEMBL document CHEMBL6115002, “Discovery of novel sitolactone derivative leading to PANoptosis and differentiation of acute myeloid leukemia cells” (Eur J Med Chem, 2025).

Experiments:
Type in all cases: functional, cell-based
[1] = system: Kasumi 1; assay: Antiproliferative activity against human Kasumi 1 cells assessed as inhibition cell proliferation incubated for 72 hrs by MTT assay; conditions: Kasumi 1, 72 h
[2] = system: MV4-11; assay: Antiproliferative activity against human MV4-11 cells assessed as inhibition cell proliferation incubated for 72 hrs by MTT assay; conditions: MV4-11, 72 h
[3] = Antiproliferative activity against mouse WEHI-3 cells assessed as inhibition cell proliferation incubated for 72 hrs by MTT assay; conditions: WEHI-3, 72 h

SMILES | IC50 [1] [µM] | IC50 [2] [µM] | IC50 [3] [µM]
C=C1C[C@@H]2[C@@H](CC[C@]3(C)[C@@H](OC(=O)c4ccc(C(F)(F)F)cn4)CC[C@@H]23)OC1=O | 15.3 | 14.2 | 8.21
C=C1C[C@@H]2[C@@H](CC[C@]3(C)[C@@H](O[Si](c4ccccc4)(c4ccccc4)C(C)(C)C)CC[C@@H]23)OC1=O | 1.51 | 3.89 | 1.37
C=C1C[C@@H]2[C@@H](CC[C@]3(C)[C@@H](O[Si](C)(C)CCCCCCCCCCCCCCCCCC)CC[C@@H]23)OC1=O | 5.93 | 8.89 | 6.25
C=C[Si](C)(C)O[C@H]1CC[C@H]2[C@@H]3CC(=C)C(=O)O[C@@H]3CC[C@]12C | > 20 | > 20 | > 20
CC(C)[Si](O[C@H]1CC[C@H]2[C@@H]3CCC(=O)O[C@@H]3CC[C@]12C)(C(C)C)C(C)C | > 20 | > 20 | > 20
C=C1C[C@@H]2[C@@H](CC[C@]3(C)[C@@H](OS(=O)(=O)c4cccnc4)CC[C@@H]23)OC1=O | 10.9 | > 20 | 13.3
C=C1C[C@@H]2[C@@H](CC[C@]3(C)[C@@H](OC(=O)c4ccc(F)cc4)CC[C@@H]23)OC1=O | 10.4 | 13.4 | 6.27
C=C1C[C@@H]2[C@@H](CC[C@]3(C)[C@@H](O[Si](C)(C)CCCCl)CC[C@@H]23)OC1=O | > 20 | > 20 | > 20
C=C1C[C@@H]2[C@@H](CC[C@]3(C)[C@@H](O[Si](C)(C)C)CC[C@@H]23)OC1=O | 16.3 | > 20 | 14.2
C=C1C[C@@H]2[C@@H](CC[C@]3(C)[C@@H](O[Si](C)(C)C(C)C)CC[C@@H]23)OC1=O | > 20 | > 20 | > 20
C=C1C[C@@H]2[C@@H](CC[C@]3(C)[C@@H](O[Si](C)(C)C4CCCCC4)CC[C@@H]23)OC1=O | 9.25 | 10.4 | 7.96
C=C1C[C@@H]2[C@@H](CC[C@]3(C)[C@@H](OC(=O)C4CCCC4)CC[C@@H]23)OC1=O | > 20 | > 20 | 15.3
C=C1C[C@@H]2[C@@H](CC[C@]3(C)[C@@H](OC(=O)C4CC4)CC[C@@H]23)OC1=O | > 20 | > 20 | > 20
C=C1C[C@@H]2[C@@H](CC[C@]3(C)[C@@H](OC(=O)c4ccc(CC)cc4)CC[C@@H]23)OC1=O | 10.3 | 16.4 | 6.73
C=C1C[C@@H]2[C@@H](CC[C@]3(C)[C@@H](OS(=O)(=O)c4ccsc4C(=O)OC)CC[C@@H]23)OC1=O | > 20 | > 20 | 18
C=C1C[C@@H]2[C@@H](CC[C@]3(C)[C@@H](OC(c4ccccc4)c4ccccc4)CC[C@@H]23)OC1=O | 2.89 | 4.66 | 3.58
C=C1C[C@@H]2[C@@H](CC[C@]3(C)[C@@H](OC(C)(C)C)CC[C@@H]23)OC1=O | 8.98 | 11.7 | 7.17
C=C1C[C@@H]2[C@@H](CC[C@]3(C)[C@@H](O[Si](C)(C)C(C)(C)C)CC[C@@H]23)OC1=O | 3.72 | 8.36 | 2.36
C=C1C[C@@H]2[C@@H](CC[C@]3(C)[C@@H](O[Si](CCC)(CCC)CCC)CC[C@@H]23)OC1=O | 1.29 | 2.17 | 1.46

SMILES | IC50 [1] [µM] | IC50 [2] [µM] | IC50 [3] [µM]
C=C1C[C@@H]2[C@@H](CC[C@]3(C)[C@@H](OC=O)CC[C@@H]23)OC1=O | 16.4 | > 20 | 13.7
C=C1C[C@@H]2[C@@H](CC[C@]3(C)[C@@H](O[Si](c4ccccc4)(c4ccccc4)c4ccccc4)CC[C@@H]23)OC1=O | 5.86 | 5.32 | 4.61
C=C1C[C@@H]2[C@@H](CC[C@]3(C)[C@@H](OS(=O)(=O)CCCCCCC)CC[C@@H]23)OC1=O | > 20 | > 20 | > 20
C=C1C[C@@H]2[C@@H](CC[C@]3(C)[C@@H](OC(=O)c4ccccn4)CC[C@@H]23)OC1=O | 13.7 | 16.6 | 8.85
C=C1C[C@@H]2[C@@H](CC[C@]3(C)[C@@H](O[Si](OC)(OC)OC)CC[C@@H]23)OC1=O | > 20 | > 20 | > 20
C#CCCCC(=O)O[C@H]1CC[C@H]2[C@@H]3CC(=C)C(=O)O[C@@H]3CC[C@]12C | > 20 | > 20 | > 20
C=C1C[C@@H]2[C@@H](CC[C@]3(C)[C@@H](OC(=O)c4ccc(OC)cc4)CC[C@@H]23)OC1=O | 15.4 | > 20 | 9.43
C=C1C[C@@H]2[C@@H](CC[C@]3(C)[C@@H](OS(=O)(=O)C[C@]45CC[C@](C)(C(=O)C4)C5(C)C)CC[C@@H]23)OC1=O | 9.8 | 12.3 | 8.29
C=C1C[C@@H]2[C@@H](CC[C@]3(C)[C@@H](OC(=O)c4ccc(C(F)(F)F)cc4)CC[C@@H]23)OC1=O | 9.97 | 16.6 | 10.2
C=C1C[C@@H]2[C@@H](CC[C@]3(C)[C@@H](OS(=O)(=O)CCN4C(=O)c5ccccc5C4=O)CC[C@@H]23)OC1=O | 7.82 | 15.4 | 9.17
C=C1C[C@@H]2[C@@H](CC[C@]3(C)[C@@H](O[Si](CC)(CC)CC)CC[C@@H]23)OC1=O | 2.97 | 4.53 | 2.14
C=C1C[C@@H]2[C@@H](CC[C@]3(C)[C@@H](OC(=O)c4ccc(-c5ccccc5)cc4)CC[C@@H]23)OC1=O | 18.1 | 20 | 14.3
C[C@]12CC[C@H]3OC(=O)CC[C@H]3[C@@H]1CCC2=O | > 100 | > 100 | > 100
C=C1C[C@@H]2[C@@H](CC[C@]3(C)[C@@H](OS(=O)(=O)c4ccc(C)cc4)CC[C@@H]23)OC1=O | 8.25 | 9.46 | 9.28
C=C1C[C@@H]2[C@@H](CC[C@]3(C)[C@@H](OS(=O)(=O)c4c(C)noc4C)CC[C@@H]23)OC1=O | 14.3 | 15.9 | 13.3
C=C1C[C@@H]2[C@@H](CC[C@]3(C)[C@@H](OS(=O)(=O)Cc4ccccc4)CC[C@@H]23)OC1=O | 15.3 | > 20 | 18.6
C=C1C[C@@H]2[C@@H](CC[C@]3(C)[C@@H](O)CC[C@@H]23)OC1=O | > 20 | > 20 | 12.6
C=C1C[C@@H]2[C@@H](CC[C@]3(C)[C@@H](OC(=O)c4ccccc4)CC[C@@H]23)OC1=O | 18.8 | 16 | 10.3
C=C[Si](C)(O[C@H]1CC[C@H]2[C@@H]3CC(=C)C(=O)O[C@@H]3CC[C@]12C)c1ccccc1 (some centres undefined) | 16.3 | > 20 | 15.4
